# Assay results from paper PMC5817852 (The Open Medicinal Chemistry Journal, 2018).
# Where two headings read alike, the source gives them in different places.
# Tests used:
# [1] = test system: HT29 colorectal carcinoma; experiment: qHTS cell viability screen (Cell Titer Glo), HT29; type: cell-based
# [2] = test system: REH cells (precursor B-cell ALL); experiment: Additional cancer cell line panel, REH; type: cell-based, human; conditions: read-out: EC50 REH
# [3] = BJ cell cytotoxicity counter screen; conditions: human
# Source text: (§1) Most analogs in the presented series are lipophilic while also containing a positively charged amine. Lipophilic basic amines can accumulate in cell membranes if their lipophilic atom groups form favorable non-polar contacts with lipid chains while their charged amine is interacting with fatty acid head groups. Such association with lipids can lead to cytotoxicity through membrane destabilization. Therefore, we evaluated a number of representative compounds against BJ cells, a normal human foreskin fibroblast cell line, where cytotoxicity was determined at 10 µM drug concentration, as described previously.
# (§2) minimum locked at 0 and 100 respectively.
# (§3) children with ALL in relapse.
# (§4) foreskin fibroblast cell line (BJ).
# (§5) Table 2. […] SSA: Sulindac sulfide
# [4] = test system: PC3 prostate cancer cell line; experiment: qHTS cell viability screen (Cell Titer Glo), PC3; type: cell-based; conditions: read-out: CC50 PC3
# [5] = test system: MDA-MB-231 breast cancer cell line; experiment: qHTS cell viability screen (Cell Titer Glo), MDA-MB-231; type: cell-based
# [6] = test system: RAJI cells (Burkitt's leukaemia/lymphoma); experiment: Additional cancer cell line panel, RAJI; type: cell-based; conditions: confidence intervals in parentheses, NA: not active
# [7] = test system: Acute T cell leukemia Jurkat e6-1 cells (JURKT); experiment: Additional cancer cell line panel, JURKT; type: cell-based; conditions: Homo sapiens, Jurkat E6.1; confidence intervals in parentheses; NA: not active
# [8] = test system: NALM16 cell line (acute lymphoblastic leukemia); experiment: Additional cancer cell line panel, NALM16; type: cell-based, human; conditions: confidence intervals in parentheses; NA: not active
# [9] = test system: BJ cells, normal human foreskin fibroblast cell line; experiment: BJ cell cytotoxicity counter screen
# Source text: as §1, §2, §3, §4, §5
# COX-1 = test system: COX-1; design: method as in PMID 19470791; conditions: cited from earlier work
# COX-2 = test system: COX-2; design: method as in PMID 19470791; conditions: cited from earlier work
# [10] = Homo sapiens, REH, confidence intervals in parentheses, NA: not active
# [11] = BJ cells (normal human foreskin fibroblast cell line)
# [12] = 72 h, PC3 prostate, 72 hours, cell viability Cell Titer Glo
# [13] = PC3 prostate, 72 hours, cell viability Cell Titer Glo
# [14] = Homo sapiens, MDA-MB-231, 96 h, MDA-MB-231 breast, 96 hours, cell viability Cell Titer Glo, read-out: CC50 MDA-MB-231
# [15] = Homo sapiens, HT-29, 72 h, HT29 colorectal carcinoma, 72 hours, cell viability Cell Titer Glo, read-out: CC50 HT29
SMILES,"CC50 [4, 12]","CC50 [5, 14]","CC50 [1, 15]",melting point,other results
COc1cc(/C=C2/C(C)=C(CNC(=O)[C@@H](N)CC(C)C)c3cc(F)ccc32)cc(OC)c1OC [Compound 31],,,,,"CC50 ([1]; Homo sapiens, HT-29, 72 h, read-out: CC50 HT29): 5.21 ± 0.39 µM; EC50 ([2]; Homo sapiens, REH): 16 µM; EC50 [3]: > 22.7 µM; CC50 ([4]; 72 h): 12 ± 1.47 µM; CC50 ([5]; Homo sapiens, MDA-MB-231, 96 h, read-out: CC50 MDA-MB-231): 8.87 ± 1.38 µM"
COc1cc(/C=C2/C(C)=C(CNC(=O)[C@@H](N)C(C)C)c3cc(F)ccc32)cc(OC)c1OC [Compound 32],< 10 µM,< 10 µM,,,"EC50 [2, 10]: 21 µM; EC50 [3, 11]: > 22.7 µM; EC50 ([6]; Homo sapiens, Raji): 110 µM; CC50 [4, 13]: 8.11 ± 0.41 µM; CC50 ([5]; MDA-MB-231 breast, 96 hours, cell viability Cell Titer Glo, read-out: CC50 MDA-MB-231): 7.3 ± 0.73 µM"
COc1cc(/C=C2/C(C)=C(CNC(=O)[C@@H]3CCCN3)c3cc(F)ccc32)cc(OC)c1OC [Compound 33],11.9 ± 1.56 µM,8.2 ± 0.99 µM,5.67 ± 1.67 µM,64 to 66 °C,"EC50 [2, 10]: 38 µM; EC50 [3, 11]: > 22.7 µM; EC50 [7]: 33 µM"
CSc1ccc(/C=C2/C(C)=C(CNS(C)(=O)=O)c3cc(F)ccc32)cc1 [Compound 34],20.2 ± 3.2 µM,9.06 ± 2.26 µM,7.43 ± 0.48 µM,159 to 160 °C,"EC50 [3, 11]: > 22.7 µM"
CCS(=O)(=O)NCC1=C(C)/C(=C/c2ccc(SC)cc2)c2ccc(F)cc21 [Compound 35],22.6 ± 3.25 µM,11.9 ± 2.61 µM,8.33 ± 1.64 µM,131 to 133 °C,
CSc1ccc(/C=C2/C(C)=C(CNS(=O)(=O)c3ccccc3)c3cc(F)ccc32)cc1 [Compound 36],39.6 ± 14.8 µM,17.7 ± 2.1 µM,9.94 ± 0.83 µM,141 to 143 °C,
CSc1ccc(/C=C2/C(C)=C(CNS(=O)(=O)c3cccc4ccccc34)c3cc(F)ccc32)cc1 [Compound 38],> 50 µM,38.9 ± 10.3 µM,17 ± 3.73 µM,94 to 95 °C,
CSc1ccc(/C=C2/C(C)=C(CNS(=O)(=O)c3ccc4ccccc4c3)c3cc(F)ccc32)cc1 [Compound 39],> 50 µM,12.9 ± 2.39 µM,25.6 ± 5.91 µM,152 to 154 °C,
CCS(=O)(=O)NCC1=C(C)/C(=C/c2cc(OC)c(OC)c(OC)c2)c2ccc(F)cc21 [Compound 42],15.1 ± 1.84 µM,6.58 ± 1.39 µM,15.6 ± 5.56 µM,132 to 134 °C,
COc1cc(/C=C2/C(C)=C(CNS(=O)(=O)c3ccc4ccccc4c3)c3cc(F)ccc32)cc(OC)c1OC [Compound 46],> 50 µM,> 50 µM,> 50 µM,118 to 120 °C,
CSc1ccc(/C=C2/C(C)=C(CN(Cc3ccncc3)Cc3ccncc3)c3cc(F)ccc32)cc1 [Compound 49],,,,,"CC50 [1]: 10.8 ± 1.84 µM; EC50 [8]: 0.051 µM; EC50 [9]: > 22.7 µM; CC50 [4, 13]: 12.7 ± 1.44 µM; CC50 [5]: 9.5 ± 2.14 µM"
COc1cc(/C=C2/C(C)=C(CN(Cc3ccncc3)Cc3ccncc3)c3cc(F)ccc32)cc(OC)c1OC [Compound 56],,,,,"EC50 ([2]; confidence intervals in parentheses, NA: not active): 32 µM; EC50 [8]: 32 µM; EC50 [9]: > 22.7 µM; EC50 [6]: 58 µM; CC50 [4, 13]: 9.09 ± 0.87 µM"
COc1cc(/C=C2/C(C)=C(CN(Cc3ccc4ccccc4c3)Cc3ccc4ccccc4c3)c3cc(F)ccc32)cc(OC)c1OC [Compound 58],> 50 µM,> 50 µM,> 50 µM,95 to 97 °C,
COc1ccc(CN(CC2=C(C)/C(=C/c3cc(OC)c(OC)c(OC)c3)c3ccc(F)cc32)Cc2ccc(OC)cc2)cc1 [Compound 59],,,,,"CC50 [1]: > 50 µM; CC50 [4, 13]: > 50 µM; CC50 [5]: > 50 µM"
COc1cc(/C=C2/C(C)=C(CN(CCc3ccccc3)CCc3ccccc3)c3cc(F)ccc32)cc(OC)c1OC [Compound 60],> 50 µM,> 50 µM,> 50 µM,,
COc1cc(/C=C2/C(C)=C(CN(Cc3ccco3)Cc3ccco3)c3cc(F)ccc32)cc(OC)c1OC [Compound 61],,,,,"CC50 [1]: > 50 µM; CC50 [4, 13]: > 50 µM; CC50 [5]: > 50 µM"
"CSc1ccc(/C=C2/C(C)=C(CC(=O)NCCN(C)C)c3cc(F)ccc32)cc1 [SSA, Sulindac sulfide amide, reference compound]",3.12 ± 0.15 µM,2.67 ± 0.08 µM,0.65 ± 0.03 µM,,"EC50 ([9]; read-out: EC50 BJ (cytotoxicity), BJ normal human foreskin fibroblasts, confidence intervals in parentheses): > 7.57 µM; activity against COX-1 (COX-1): no activity; activity against COX-2 (COX-2): no activity"
